Experimental data taken from patent US6602673B2, “Huntingtin-related therapeutics and bioassay” (University of Massachusetts, priority 1996, dated 2003).

System: human fibroblasts
Assay: Brefeldin A (BFA) treatment of human fibroblasts, immunofluorescence localization of huntingtin, 58 kDa Golgi protein and tubulin
Type: cell-based
Procedure: For the studies described herein, fibroblasts from passage number 10-15 were plated onto coverslips and grown in culture for 24-48 hours. Cells were rinsed briefly with phosphate buffered saline (PBS) and fixed for 10 minutes with 4% paraformaldehyde in PBS at room temperature. After fixation, cells were rinsed multiple times and stored at 4° C. in PBS. Huntingtin was immunolocalized in human fibroblasts using an affinity purified anti-peptide antibody, Ab 2527, at 2-4 μg/ml. In selected experiments, cells were also labeled with a monoclonal antiserum that recognizes clathrin heavy chain (2 μg/ml, Biodesign Int., Kennebunk, Me.), the Golgi-associated 58 kDa protein (ascites serum diluted 1:100, Sigma Chemical Co., St. Louis, Mo.), or human transferrin receptor (5 μg/ml, Zymed Laboratories Inc., San Francisco, Calif.). Cells were made permeable by a 30 minute incubation in 0.1% Triton® X-100 in PBS, rinsed several times, and blocked with 5% normal goat serum for 60 minutes prior to incubation in primary antibodies. All incubations, whether performed with a single type of antibody or two types of antibodies, were carried out overnight at 4° C. and were followed by multiple rinses in PBS. Secondary antibodies were used at a 1:400 dilution. A pooled mixture of either Texas Red goat anti-mouse IgG (Molecular Probes Inc., Eugene, Oreg.) and Bodipy FL anti-rabbit IgG (Molecular Probes Inc, Eugene, Oreg.) or Texas Red goat anti-mouse IgM (Vector Laboratories, Burlingame, Calif.) and Bodipy FL anti-rabbit IgG were used. For immunoperoxidase labeling, cells were rinsed several times after the primary incubation and an avidin/biotin blocking procedure was performed prior to the incubation in secondary antibody. A Vectastain ABC™ kit (Vector Laboratories, Burlingame, Calif.) was employed to localize the primary antibody, and diaminobenzidine was used as a substrate for visualization of the peroxidase reaction product. Sections were examined using conventional immunofluorescence microscopy and a Biorad 1024 laser confocal microscope. Image processing was performed with Adobe Photoshop™.
To further establish the association of huntingtin with Golgi membranes, cells were treated with the fungal metabolite Brefeldin A (BFA).
Cells were briefly rinsed with Hank's balanced salt solution (HBSS) and then incubated in complete medium containing BFA (5 μg/ml; Gibco/BRL). The cells were incubated at either 18° C. or 37° C. for 10 minutes, then rinsed briefly with 50 mM phosphate buffered saline (PBS; pH 7.4) and fixed immediately for 10 minutes with 4% paraformaldehyde in PBS at room temperature.

C[C@H]1CCC/C=C/[C@@H]2C[C@H](O)C[C@H]2[C@H](O)/C=C/C(=O)O1 [BFA, Brefeldin A]
Distribution of tubulin in BFA-treated cells (compared to untreated cells): unchanged
Huntingtin localization after mild BFA treatment (mild BFA treatment, 5 μg for 10 min at 18° C., human fibroblasts): fragmented and dispersed
Huntingtin localization after more severe BFA treatment (more severe BFA treatment, human fibroblasts): obliterated
Localization of huntingtin and the 58 kDa protein in the presence of bfa (figure legend) (normal fibroblasts, +bfa, FIGS. 3C and 3D): more widely dispersed from the nucleus and the Golgi-membrane architecture is disrupted
